Structures can show the parent of a compound that is named as a salt.
How the values were obtained:
[1] = test system: isolated thoracic aorta of rabbit; assay: Relaxation on norepinephrine-induced contraction in isolated thoracic aorta of rabbit; conditions: for IC50: Oryctolagus cuniculus
Text: Rabbits were sacrificed by venesection following severing of the carotid artery under sodium pentobarbital anesthesia. The penis was immediately isolated and transferred into Krebs-Henseleit solution (composition (mmol/L): NaCl 118.4, KCl 4.7, CaCl2 2.5, MgSO4 1.2, KH2PO4 1.2, NaHCO3 25.0, glucose 11.1), which was adequately aerated with a 95% O2/5% CO2. After cutting away the connective tissue, the penis was severed longitudinally into two sections so that half of the urethra was present in each section by using an extension of the midline as the boundary. Each preparation was suspended from an FD pickup (TB-611T, Nihon Koden) at a resting tension of 0.5 g (about 5 mN) for the load in a nutrient solution consisting of 20 ml of organ bath maintained at 37°C. Contraction was recorded as the isometric contraction on a thermal pen writing recorder (WT-685G, Nihon Koden) following amplification by a carrier amplifier (AP-621G, Nihon Koden). After replacing the nutrient solution twice every 20 minutes and allowing to equilibrate, reactivity was confirmed for each preparation by observing the contraction to 1 µmol/L of norepinephrine. After contraction stabilized, the preparation was washed by replacing the nutrient solution, after which the solution was additionally replaced twice every 20 minutes and acceptable to equilibrate. To begin with, each preparation was contracted by norepinephrine (final concentration: 1 µmol/L). The preparation for which stable tension was obtained at this time was used in the experiment. Each drug was administered cumulatively in 10-fold ratios followed by observation of the reaction. The maximum relaxation reaction was determined by application of papaverine hydrochloride (final concentration: 100 µmol/L). The inhibition rate at each concentration was calculated by taking the tension during addition of norepinephrine to represent an inhibition rate of 0%, and the tension during the maximum relaxation reaction induced by addition of papaverine hydrochloride to represent an inhibition rate of 100%, followed by calculation of the concentration value at which the inhibition rate was 50% (IC50). The procedure was performed in the same manner as Experimental Example 2 with the exception of isolating the thoracic aorta and preparing in the form of a […] strip, and using 1 g (about 10 mN) of resting tension for the load.

[2] = test system: papillary muscle preparation from the right ventricle; assay: Action on isolated cardiac muscle of guinea-pig: force of contraction of papillary muscle preparation; conditions: 30% of isoproterenol maximum reaction
Experimental: After sacrificing male Hartley guinea-pigs by venesection, the heart was isolated and transferred to Krebs-Henseleit solution was adequately aerated with a 95% O2/5% CO2. After promptly separating the heart into the atria and ventricles, a papillary muscle preparation from the right ventricle and a right atrium preparation were prepared. Each preparation was suspended from an FD pickup (TB-611T, Nihon Koden) at a resting tension of 0.5 g (about 5 mN) for the load in a nutrient solution consisting of organ bath maintained at 31°C. Automatic contraction of the right atrium amplified by a carrier amplifier (AP-600G, Nihon Koden) followed by recording tension and the number of beats on a recorded by means of an instantaneous heart rate counter (AT600G, Nihon Koden). […] Drug action was evaluated by determining the rate of change caused by the drug by taking the difference between the maximum reaction induced by the second administration of isoproterenol and that before drug administration to be 100%, and then calculating the EC30 value as the concentration at which drug action was 30% with respect to force of contraction based on this rate of change.

[3] = test system: isolated corpus cavernosum of rabbit; assay: Relaxation on norepinephrine-induced contraction in isolated corpus cavernosum of rabbit; conditions: for attenuation of action by pre-treatment with L-NAME: L-NAME (1 mmol/L); for IC50: Oryctolagus cuniculus
Text: Rabbits were sacrificed by venesection following severing of the carotid artery under sodium pentobarbital anesthesia. The penis was immediately isolated and transferred into Krebs-Henseleit solution (composition (mmol/L): NaCl 118.4, KCl 4.7, CaCl2 2.5, MgSO4 1.2, KH2PO4 1.2, NaHCO3 25.0, glucose 11.1), which was adequately aerated with a 95% O2/5% CO2. After cutting away the connective tissue, the penis was severed longitudinally into two sections so that half of the urethra was present in each section by using an extension of the midline as the boundary. Each preparation was suspended from an FD pickup (TB-611T, Nihon Koden) at a resting tension of 0.5 g (about 5 mN) for the load in a nutrient solution consisting of 20 ml of organ bath maintained at 37°C. Contraction was recorded as the isometric contraction on a thermal pen writing recorder (WT-685G, Nihon Koden) following amplification by a carrier amplifier (AP-621G, Nihon Koden). After replacing the nutrient solution twice every 20 minutes and allowing to equilibrate, reactivity was confirmed for each preparation by observing the contraction to 1 µmol/L of norepinephrine. After contraction stabilized, the preparation was washed by replacing the nutrient solution, after which the solution was additionally replaced twice every 20 minutes and acceptable to equilibrate.
To begin with, each preparation was contracted by norepinephrine (final concentration: 1 µmol/L). The preparation for which stable tension was obtained at this time was used in the experiment. Each drug was administered cumulatively in 10-fold ratios followed by observation of the reaction. The maximum relaxation reaction was determined by application of papaverine hydrochloride (final concentration: 100 µmol/L).
The inhibition rate at each concentration was calculated by taking the tension during addition of norepinephrine to represent an inhibition rate of 0%, and the tension during the maximum relaxation reaction induced by addition of papaverine hydrochloride to represent an inhibition rate of 100%, followed by calculation of the concentration value at which the inhibition rate was 50% (IC50).

[4] = Activity on intracavernous pressure by intracavernous injection to anesthetized dogs; assay type: in vivo
Experimental: Male beagle dogs having body weights of about 10 kg were anesthetized by intravenous administration of sodium pentobarbital at 35 mg/kg followed by immobilizing the animals in the dorsal position on a heating mat (SMS-2000J, Medical System Inc.) and inserting a. cannula into the trachea. A 23G winged needle for measuring internal pressure was inserted into the right corpus cavernosum, and intracavernous pressure was measured with a blood pressure measurement amplifier (AP-641G, Nihon Koden) by means of a pressure transducer (Statham P-50, Gould Co.). Moreover, a 23G winged needle for administration of drug was inserted into the right corpus cavernosum of the base followed by intracavernous injection of sodium nitroprusside (SNP, 10^-4 or 10^-3 mol/L, 0.5 ml) followed by administration of drug at the stage an increase in intracavernous pressure was confirmed. It should be noted that Compound A and milrinone were prepared with dimethyl sulfoxide-ethanol-physiological saline (1:2:30). […]
The activity of Compound A was assessed directly by administering at a volume of 0.5 ml starting from the lowest dose level at 0.243, 0.729, 2.43, 7.29, 24.3 and 72.9 µg/body (10^-6, 3 × 10^-6, 10^-5, 3 × 10^-5, 10^-4 and 3 × 10^-4 mol/L).
The effect of milrinone and zaprinast was assessed by concomitant administration of milrinone at 106 µg/body (10^-3 mol/L) and zaprinast at 136 µg/body (10^-3 mol/L) using a dosing volume of 0.5 ml each.
Intracavernous pressure was input into a polygraph (RM-6000, Nihon Koden), and together with continuously recording on a thermal pen recorder, was recorded and sampled on an external storage device (hard disk) of a computer (Macintosh Performa 5260, Apple) by means of a circulation kinetics analysis system (MP100WS, BIOPAC System) using circulation kinetics analysis software (MP/VAS 3 Ver. 1.0 beta 4.2, Physio-Tech Co., Ltd.). Maximum rate of change, duration and area under the curve (AUC) of intracavernous pressure were calculated using the circulation kinetics analysis software based on the resulting data. […]

right atrium preparation = assay: Action on isolated cardiac muscle of guinea-pig: number of beats of right atrium preparation; conditions: for action on the heart relative to the action on the corpus cavernosum: EC30 heart compared with IC50 corpus cavernosum of Experimental example 2; for EC30 Heart rate: number of beats, 30% of isoproterenol maximum reaction
Experimental: After sacrificing male Hartley guinea-pigs by venesection, the heart was isolated and transferred to Krebs-Henseleit solution was adequately aerated with a 95% O2/5% CO2. After promptly separating the heart into the atria and ventricles, a papillary muscle preparation from the right ventricle and a right atrium preparation were prepared. Each preparation was suspended from an FD pickup (TB-611T, Nihon Koden) at a resting tension of 0.5 g (about 5 mN) for the load in a nutrient solution consisting of organ bath maintained at 31°C. Automatic contraction of the right atrium amplified by a carrier amplifier (AP-600G, Nihon Koden) followed by recording tension and the number of beats on a recorded by means of an instantaneous heart rate counter (AT600G, Nihon Koden). For the papillary muscle, a rectangular wave electrical stimulus was applied by an electrical stimulator (SEN-3201, Nihon Koden) through bipolar platinum electrodes followed by amplification of the resulting tension by a carrier amplifier (AP-600G, Nihon Koden) and recording on a recorder. The right atrium preparations were equilibrated by replacing the nutrient solution twice every 20 minutes followed by confirmation of the reactivity of each preparation by observing the number of beats in the presence of 0.1 µmol/L of isoproterenol. After the number of beats had stabilized, the preparations were washed by replacing the nutrient solution and additionally equilibrated by replacing the nutrient solution twice every 20 minutes. Each drug was administered cumulatively followed by observing the reaction. Drug action was evaluated by determining the rate of change caused by the drug by taking the difference between the maximum reaction induced by isoproterenol and that before drug administration to be 100%, and then calculating the EC30 value as the concentration at which drug action was 30% with respect to the number of beats based on this rate of change.

[5] = direct relaxation, norepinephrine 1 µmol/L contraction
[6] = pre-treatment with L-NAME (1 mmol/L)
[7] = intracavernous injection, Dunnett's test vs solvent group

## Cl.O=c1[nH]nc(OCCCc2ccc(Cl)cc2)c(NCc2cccnc2)c1Br [Compound A, 4-bromo-6-[3-(4-chlorophenyl)propoxy]-5-(3-pyridylmethylamino)-3(2H)-pyridazinone hydrochloride]
[1]; IC50 aorta compared with IC50 corpus cavernosum
  action on the cavernous body relative to that on the aorta: about 8 times
[1]; aorta, pre-treatment with SNP (1 nmol/L)
  IC50: 2.71 µM
[1]; direct relaxation, norepinephrine 1 µmol/L contraction, aorta
  IC50: 2.65 µM
[1]; aorta, cumulative administration
  relaxation action: dose-dependent relaxation action
[1]; aorta, SNP (1 nmol/L)
  effect of pre-treatment with SNP on action: completely unaffected
[2]; hydrochloride
  EC30 Papillary muscle contraction force: >30 µM
[3]
  attenuation of action by pre-treatment with L-NAME: about one-half
[3]; [5]
  IC50: 0.33 µM
[3]; [6]
  IC50: 0.77 µM
[3]; pre-treatment with SNP (1 nmol/L)
  IC50: 0.15 µM
[3]; SNP (1 nmol/L)
  enhancement of action by pre-treatment with SNP: about two-fold
[4]; intracavernous injection 0.243 to 72.9 µg/body (10^-6 to 3 × 10^-4 mol/L), after SNP
  intracavernous pressure: increased intracavernous pressure, nearly dose-dependently
[4]; [7]
  dose with significant effects on duration of intracavernous pressure: ≥ 2.43 µg/body
  dose with significant effects on maximum rate of change of intracavernous pressure: ≥ 2.43 µg/body
Right atrium preparation
  action on the heart relative to the action on the corpus cavernosum: less than 1/90
Right atrium preparation; hydrochloride
  EC30 Heart rate: >30 µM

## O=c1[nH]nc(OCCC(O)c2ccc(Cl)cc2)c(NCc2cccnc2)c1Br (stereo not drawn) [Compound B, 4-bromo-6-[3-(4-chlorophenyl)-3-hydroxypropoxy]-5-(3-pyridylmethylamino)-3(2H)-pyridazinone hydrochloride]
[3]; [5]
  IC50: 1.59 µM

## Cc1[nH]c(=O)c(C#N)cc1-c1ccncc1 [Milrinone, milrinone, reference compound]
[2]
  EC30 Papillary muscle contraction force: 33.9 µM
[3]; [5]
  IC50: 5.8 µM
Right atrium preparation
  action on the heart relative to the action on the corpus cavernosum: about 1/2
  EC30 Heart rate: 11.7 µM

## CCCOc1ccccc1-c1nc2nn[nH]c2c(=O)[nH]1 [Zaprinast, zaprinast, reference compound]
[3]
  attenuation of action by pre-treatment with L-NAME: 1/18
[3]; [5]
  IC50: 5.5 µM
[3]; [6]
  IC50: > 100 µM

— patent EP1157694A1, “REMEDIAL AGENT FOR ERECTILE DYSFUNCTION” (Nissan Chemical Industries, Ltd., priority 1998, dated 2000)
